Assay results from patent US8557767B2, “Synthetic apolipoprotein E mimicking polypeptides and methods of use” (UAB Research Foundation, priority 2007, dated 2013).

How the values were obtained:
[1] = test system: atherogenic apo B-containing lipoproteins in human plasma; conditions: cited from earlier work
[2] = test system: NZW rabbits on 1% cholesterol diet; assay: Peptide administration to NZW rabbits on 1% cholesterol diet; assay type: in vivo, rabbit
Method: Administration of Ac-hE18A-NH2 to high fat diet administered rabbits with initial cholesterol values in the range of 600 mg/dl (1 week on 1% cholesterol diet). […] A 50% decrease in plasma cholesterol was observed after administration of the peptide.
This occurs through a lowering of plasma lipid hydroperoxide levels concomitant with a significant increase in the plasma paraoxonase (PON-1) activity. In the WHHL model, the LDL-R pathway is compromised, thus the accelerated atherogenic lipoprotein clearance is likely via the cell surface HSPG-mediated pathway, as described earlier in murine models (Garber, D. W. et al. Atherosclerosis. 163:229-237 2003).
It has been shown that very small amounts of D-4F, a class A amphipathic helical peptide, modifies several HDL properties (Navab, M., et al. Circulation 109:3215-3220 2004). […] NZW rabbits have been studied for hypercholesterolemia and relative LDL and β-VLDL production using diets containing different amounts of cholesterol (Holvoet, P. et al. Arterioscl. Thromb. Vasc. Biol. 17:2376-2382 1997). Thus, with 0.125% (w/w) cholesterol diet, LDL cholesterol levels increase; with 0.5% and higher cholesterol levels in the diet, […]-VLDL (containing apo B-100) increases dramatically. These β-VLDL particles contain increased amounts of oxidized lipids, thus enhancing the progression of atherosclerosis (Holvoet, P. et al. Arterioscl. Thromb. Vasc. Biol. 17:2376-2382 1997). To assess the effect of the peptide in this rabbit model, a 1% cholesterol diet fed NZW rabbits were utilized.
Rabbits responding to high cholesterol diet were randomized one week after the start of the diet to select rabbits with similar response (similar amounts of total plasma cholesterol). […] After 14 days from the first administration, plasma samples were taken from both the peptide-administered and saline administered (control) rabbits (n=3 in each group). The plasma samples from the peptide administered rabbits were not turbid, whereas the plasma samples from control rabbits were turbid. […] A second dose of peptide was administered 15 days after the first treatment. Since the cholesterol levels remained low two weeks after the second administration in peptide-administered rabbits, these and saline administered rabbits were sacrificed 51 days after the initiation of the diet. Aorta from the peptide administered and control rabbits were stained with Oil Red O. Aorta from the peptide administered rabbits had 40-50% less lesion than the control rabbit aorta.
Therefore, possible reasons for the clearance of atherogenic lipoproteins can be in addition to rapid hepatic clearance similar to the properties of apo E, modulation of HDL properties or synthesis of macrophage apo E. If this is true, this peptide may also exert its effect on endothelial function. Indeed it was observed that there is a recovery of endothelial function as studied by the acetylcholine dose-dependent aortal relaxation (FIG. 13). […] It is possible that lipid lowering can cause reduction of oxidative stress and thus inhibition of endothelial activation.
Results observed in HepG2 cells indicate that peptide associates with apo B-containing plasma lipoproteins to incorporate positive charges on the lipoprotein surface. This enables the apo B-containing lipoproteins to interact with heparan sulphate proteoglycans (HSPGs). The effect of these peptides on the mode of reduction of plasma cholesterol levels in mouse models and the two rabbit models can be determined. In NZW rabbits fed a 1% cholesterol-diet, a reduction of plasma cholesterol is observed which lasts for 14 days after the peptide administration; whereas in the WHHL rabbits, the reduction is initially rapid and returns to original levels within 3 days. Since the WHHL rabbit model is LDL-receptor defective, the differential effects of the peptide in two models can be due to differences in the receptor-mediated clearance pathways of atherogenic lipoproteins. […]

[3] = test system: B-100-containing particles; assay: Association of peptide with mouse apo B-100-containing particles; assay type: binding; conditions: LDL-R (null) and C57BL6 on normal chow
Text: Although Ac-hE-18A-NH2 enhanced the hepatic uptake and degradation of atherogenic lipoproteins in apo E null mice, dual knockout mice (LDL-R(null)-apo E(null)), and C57BL/6 on an atherogenic diet, the peptide had no effect on the plasma cholesterol levels of C57BL/6 on normal chow, LDL-R(null) on normal chow or on a Western diet. […] However, the peptide is able to associate with human LDL (containing apo B-100) and VLDL and is able to enhance uptake and degradation of atherogenic human lipoproteins in HepG2 cells and in LDL-R (null) mouse model (Garber, D. W. et al. Atherosclerosis. 163:229-237 2003). The reason for the difference in the properties of apo B-100-containing human LDL and mouse LDL is not clear.

[4] = test system: plasma LDL from WHHL rabbits; assay: Association of 125I-labelled peptide with WHHL rabbit plasma lipoproteins (CLiP); assay type: binding
Method: 100 μg of the ^125I-labelled peptide was mixed with 1 ml of plasma from 6 month old WHHL rabbit. After incubation for 1 h at room temperature, the plasma was subjected to CLiP analysis (66). Radioactivity in different fractions was determined and plotted on the CLiP profile. […] This improvement was associated with a reduction in 2 markers of oxidative stress.

## Ac-LRKLRKRLLRDWLKAFYDKVAEKLKEAF-NH2 [Ac-hE-18A-NH2]
[1]
  association with atherogenic apo B-containing lipoproteins: associates with atherogenic apo B-containing lipoproteins
[2]; 3 mg/kg i.v. twice, sacrificed 51 days after initiation of diet
  less aorta lesion than control (Oil Red O): 40-50%
[2]; 3 mg/kg i.v., 14 days after first administration, n=3
  amounts of VLDL and LDL in plasma: Significantly decreased
[2]; 3 mg/kg, saline-treated control ~50% lesion coverage
  lesion by en face analysis after 50 days: little to no lesion
[2]; 5 mg/kg iv two times, n=4 (FIG. 11 legend)
  decrease in plasma cholesterol: 50%
[2]; 5 mg/kg iv two times, n=4, control in the range of 2000 mg/dl
  plasma cholesterol values at end of 14 days: ~1000 mg/dL
[2]; 7.5 mg/kg i.v. in two intervals one week apart
  plasma cholesterol less than in control rabbits at end of experiment: 50%
[2]; NZW rabbits fed 1% cholesterol diet
  duration of reduction of plasma cholesterol after peptide administration: 14 days
[2]; aortal rings after 51 days of 1% cholesterol diet
  endothelial function, acetylcholine dose-dependent aortal relaxation: vascular response almost similar to aortas obtained from rabbits on a normal diet
[2]; single intravenous administration 3 mg/kg
  time for which total plasma cholesterol levels were significantly decreased: 15 days
[3]
  association with B-100-containing particles: not able to associate
[4]; 100 ug 125I-labelled peptide in 1 ml plasma, 1 h room temperature
  association with WHHL plasma lipoproteins: associates with LDL
[4]; compared to plasma from untreated rabbits
  LOOH content of peptide-treated WHHL plasma LDL: reduced amounts of LOOH
